Patent publication US20240018132A1, “5-HYDROXY-1,4-NAPHTHALENEDIONE FOR USE IN THE TREATMENT OF CANCER” (GODAVARI BIOREFINERIES LIMITED, priority 2020, published 2024)

Test system: Aldehyde dehydrogenase (ALDH)
Assay: Aldehyde Dehydrogenase (ALDH) assay, ELISA kit
Assay type: cell-based
Details: MDAMB231, 48 hrs
Text: Aldehyde dehydrogenases (ALDH) are a family of enzymes that catalyze the metabolism of exogenous and endogenous aldehydes, preventing the accumulation of potentially reactive and toxic aldehydes and their metabolites. In addition to their role in aldehyde metabolism, ALDH enzymes also play critical roles in other cellular processes such as cell proliferation, differentiation, and survival. ALDH also serves as a marker for certain stem cell populations including hematopoietic stem cells and certain cancer stem cells. ALDH concentration was determined by using ([…] Dx) ELISA kit by following protocol: • 1 Standards (50 μl)/sample (40 μl) were added to the respective wells, (except Blank). • 2. (10 μl) Antibody-Biotin conjugate was then added in each sample well (except Blank). • 3. (50 μl) of Horse Radish Peroxidase (HRP) Conjugate was then added to each well (except Blank). • 4. The plates were incubated for one hour at 37° C. in the incubator. • 5. Wash (4 times with wash buffer) and blot residual buffer by firmly tapping the plate on the absorbent paper. Wipe off any liquid from the bottom of the microtiter wells as any residue can interfere in the reading step. • 6. Add TMB substrate A (50 μl) and then TMB substrate B (50 μl) to each well including Blank as well. • 7. Incubate for 10 mins at 37° C. in dark. • 8. Add (50 μl) stop solution. Wells should turn from blue to yellow. • 9. Read absorbance at 450 nm. • 10 A X-Y graph of concentration vs optical density was plotted. ALDH concentration was calculated by substituting optical density values in the regression analysis equation.

Row | Structure (SMILES) | % inhibition of ALDH on Breast Cancer Cell line (MDAMB231) after 48 hrs [%]
1 | O=C1C(c2ccc3c(c2)OCO3)=CC(=O)c2c(OCCCCN3CCOCC3)cccc21 [Formula 2, 5-(4-morpholinobutoxy)-2-(benzo[d][1,3]dioxol-6-yl)naphthalene-1,4-dione] | 76.09
2 | COc1ccc(NC2=CC(=O)c3c(OCCN4CCOCC4)cccc3C2=O)cc1OC [Formula 40, 5-(2-morpholinoethoxy)-2-(3,4-dimethoxyphenylamino) naphthalene-1,4-dione] | 62.73
3 | O=C1C(NC2CCCCC2)=CC(=O)c2c(OCCN3CCOCC3)cccc21 [Formula 52] | 74.69
